# In ChEMBL document CHEMBL5465560, “Selectivity Literature for EUbOPEN Chemogenomic Library” (2024):
# Legend:
# [1] = target: T1, Cyclin-G-associated kinase (Homo sapiens) (UniProt O14976); conditions: at 10 µM
# T1 sequence (whole entry): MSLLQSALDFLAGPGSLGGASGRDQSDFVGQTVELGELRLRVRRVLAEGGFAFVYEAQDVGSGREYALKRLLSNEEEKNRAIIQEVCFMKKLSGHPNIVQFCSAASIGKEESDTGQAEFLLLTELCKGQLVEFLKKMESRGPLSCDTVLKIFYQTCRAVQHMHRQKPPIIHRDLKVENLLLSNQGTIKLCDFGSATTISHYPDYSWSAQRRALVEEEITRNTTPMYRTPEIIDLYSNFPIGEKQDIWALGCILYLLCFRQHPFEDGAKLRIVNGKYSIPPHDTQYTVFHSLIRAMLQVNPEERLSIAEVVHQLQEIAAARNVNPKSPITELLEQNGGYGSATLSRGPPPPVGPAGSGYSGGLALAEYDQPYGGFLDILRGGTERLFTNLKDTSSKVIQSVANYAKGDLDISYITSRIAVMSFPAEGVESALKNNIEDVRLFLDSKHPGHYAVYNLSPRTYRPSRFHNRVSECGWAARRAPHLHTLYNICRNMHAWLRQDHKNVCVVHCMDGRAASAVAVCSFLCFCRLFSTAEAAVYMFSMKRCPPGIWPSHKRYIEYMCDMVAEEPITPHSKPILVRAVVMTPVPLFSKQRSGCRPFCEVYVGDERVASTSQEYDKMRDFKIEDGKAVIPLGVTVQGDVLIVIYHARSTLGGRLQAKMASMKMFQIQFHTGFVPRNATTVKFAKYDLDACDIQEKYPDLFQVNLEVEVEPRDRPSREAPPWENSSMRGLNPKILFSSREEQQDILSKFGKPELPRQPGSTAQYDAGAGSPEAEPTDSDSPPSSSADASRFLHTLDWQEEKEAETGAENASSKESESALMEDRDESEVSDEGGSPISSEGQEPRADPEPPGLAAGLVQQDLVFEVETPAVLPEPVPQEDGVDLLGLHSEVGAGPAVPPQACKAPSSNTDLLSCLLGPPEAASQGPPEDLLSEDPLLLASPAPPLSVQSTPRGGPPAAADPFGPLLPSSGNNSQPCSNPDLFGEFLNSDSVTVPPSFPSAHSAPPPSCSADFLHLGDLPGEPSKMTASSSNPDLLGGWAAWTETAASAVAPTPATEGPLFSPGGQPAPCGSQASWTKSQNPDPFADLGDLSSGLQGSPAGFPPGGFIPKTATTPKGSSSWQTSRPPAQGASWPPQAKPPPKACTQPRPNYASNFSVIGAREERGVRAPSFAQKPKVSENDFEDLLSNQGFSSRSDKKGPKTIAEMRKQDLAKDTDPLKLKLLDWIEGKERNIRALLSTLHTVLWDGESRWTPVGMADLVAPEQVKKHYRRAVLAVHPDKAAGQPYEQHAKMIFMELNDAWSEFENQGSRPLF
# [2] = target: T2, MAP/microtubule affinity-regulating kinase 4 (Homo sapiens) (UniProt Q96L34); test: Selectivity interaction (ActivX KiNativ screen (kinase selectivity in THP-1 cell lysates)) EUB0000639a MARK4; type: subcellular; conditions: lysate, at 0.2 µM
# T2 sequence (whole entry): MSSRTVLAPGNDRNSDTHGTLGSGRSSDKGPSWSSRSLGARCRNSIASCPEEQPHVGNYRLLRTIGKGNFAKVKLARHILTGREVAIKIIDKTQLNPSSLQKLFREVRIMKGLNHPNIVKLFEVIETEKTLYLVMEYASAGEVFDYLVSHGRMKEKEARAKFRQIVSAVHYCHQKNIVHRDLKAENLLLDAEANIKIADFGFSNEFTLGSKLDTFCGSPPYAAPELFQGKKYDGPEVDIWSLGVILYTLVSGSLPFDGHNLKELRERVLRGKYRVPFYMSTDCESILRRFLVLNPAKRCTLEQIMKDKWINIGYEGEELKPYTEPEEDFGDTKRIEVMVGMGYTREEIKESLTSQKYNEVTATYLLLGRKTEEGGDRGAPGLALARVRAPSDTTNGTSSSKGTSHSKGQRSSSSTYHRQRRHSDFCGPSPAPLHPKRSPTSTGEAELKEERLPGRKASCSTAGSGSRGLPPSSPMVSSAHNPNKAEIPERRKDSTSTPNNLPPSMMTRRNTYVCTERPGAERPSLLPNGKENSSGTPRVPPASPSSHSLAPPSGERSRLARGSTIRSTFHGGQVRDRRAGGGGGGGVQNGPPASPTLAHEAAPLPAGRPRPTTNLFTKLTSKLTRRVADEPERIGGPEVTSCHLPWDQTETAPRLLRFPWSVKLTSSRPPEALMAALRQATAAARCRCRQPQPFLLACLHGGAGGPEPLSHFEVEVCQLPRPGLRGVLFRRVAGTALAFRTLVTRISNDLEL
% of control [1],% of inhibition [2],SMILES
100%,,CCN(CC)CCCCNc1ncc2cc(-c3cc(OC)cc(OC)c3)c(NC(=O)NC(C)(C)C)nc2n1
,13.2%,CC[C@@H]1[C@H](F)C(=O)N[C@@H]1COc1nccc2cc(C(N)=O)c(OC)cc12 [ZIMLOVISERTIB]
